Reference: patent US20260191849A1, “PHARMACEUTICAL COMPOSITION FOR TREATMENT OF CANCER” (WIGEN BIOMEDICINE TECHNOLOGY (SHANGHAI) CO., LTD., priority 2022, published 2026)
Read-outs that look alike come from different tables or passages of the source.

Tests used:
Format in all cases: cell-based
HT29 cells [1] = assay: Combined use of compound 257 or AMG650 with PLK1 inhibitor on HT29 cell viability, 168 h (Biological Example 7); conditions: for Maximum inhibition rate / Minimum inhibition rate / IC50: HT29 cells; for IC50: Homo sapiens, HT-29, 168 h
Experimental: HT29 cells were seeded on a 384-well plate at 3000 cells/well. After overnight adherence culture, DMSO or compound 257 or AMG650 serially diluted in a 1:5 ratio from 400 nM and a PLK1 inhibitor with a specified concentration were added. The cell viability was assessed 168 h after dosing by measuring the intracellular ATP content. The inhibition percentages of viable cells by the compounds were calculated by comparing with the DMSO group, and the IC50 values were also calculated.

HCT116 cells [2] = assay: Combined use of compound 257 with PLK1 inhibitor (CYC140, TAK-960) on HCT116 cell viability, 168 h (Biological Example 10)
Experimental: HCT116 cells were seeded on a 384-well plate at 3000 cells/well. After overnight adherence culture, DMSO or compound 257 serially diluted in a 1:5 ratio from 400 nM and a PLK1 inhibitor with a specified concentration were added. The cell viability was assessed 168 h after dosing by measuring the intracellular ATP content. The inhibition percentages of viable cells by the compounds were calculated by comparing with the DMSO group, and the IC50 values were also calculated.

HT29 cells [3] = assay: Combined use of compound 257, AMG650 or Compound A with PLK1 inhibitor on HT29 cell viability, 168 h (Biological Example 19); conditions: for IC50: Homo sapiens, HT-29, 168 h, HT29 cells, read-out: IC50
Experimental: HT29 cells were seeded on a 384-well plate at 3000 cells/well.

HCT116 cells [4] = assay: Combined use of compound 257 or AMG650 with PLK1 inhibitor on HCT116 cell viability, 168 h (Biological Example 8)
Experimental: HCT116 cells were seeded on a 384-well plate at 3000 cells/well. After overnight adherence culture, DMSO or compound 257 or AMG650 serially diluted in a 1:5 ratio from 10 μM and a PLK1 inhibitor with a specified concentration were added. The cell viability was assessed 168 h after dosing by measuring the intracellular ATP content. The inhibition percentages of viable cells by the compounds were calculated by comparing with the DMSO group, and the IC50 values were also calculated.

HCT116 cells [5] = assay: Combined use of compound 257 with PLK1 inhibitor on HCT116 cell viability, 72 h (Biological Example 6)
Experimental: HCT116 cells were seeded on a 384-well plate at 3000 cells/well. After overnight adherence culture, DMSO or compound 257 serially diluted in a 1:5 ratio from 5 μM and a PLK1 inhibitor with a specified concentration were added. The cell viability was assessed 72 h after dosing by measuring the intracellular ATP content. The inhibition percentages of viable cells by the compounds were calculated by comparing with the DMSO group, and the IC50 values were also calculated.

SK-OV-3 cells = assay: Combined use of compound 257 or AMG650 with PLK1 inhibitor on SK-OV-3 cell viability, 168 h (Biological Example 21); conditions: 168 h; for IC50: Homo sapiens, SK-OV-3, 168 h, SK-OV-3 cells, read-out: IC50
Experimental: SK—OV-3 cells were seeded on a 384-well plate at 3000 cells/well. After overnight adherence culture, DMSO or compound 257 or AMG650 serially diluted in a 1:5 ratio from 400 nM and a PLK1 inhibitor with a specified concentration were added. The cell viability was assessed 168 h after dosing by measuring the intracellular ATP content. […] Furthermore, interactions between the drugs were also analyzed using the BLISS independence model, and the results are shown in FIG. 11 and FIG. 12.

HT29 cells [6] = assay: Combined use of compound 257 or AMG650 with PLK1 inhibitor (Volasertib) on HT29 cell viability, 168 h (Biological Example 22); conditions: 168 h; for IC50: Homo sapiens, HT-29, 168 h, HT29 cells, read-out: IC50
Experimental: HT29 cells were seeded on a 384-well plate at 3000 cells/well. After overnight adherence culture, DMSO or compound 257 or AMG650 serially diluted in a 1:5 ratio from 400 nM and a PLK1 inhibitor with a specified concentration were added. The cell viability was assessed 168 h after dosing by measuring the intracellular ATP content. […] Furthermore, interactions between the drugs were also analyzed using the BLISS independence model, and the results are shown in FIG. 15 and FIG. 16.

HCT116 cells [7] = assay: Combined use of compound 257, AMG650 or Compound A with PLK1 inhibitor on HCT116 cell viability, 168 h (Biological Example 20)
Experimental: HCT116 cells were seeded on a 384-well plate at 3000 cells/well. After overnight adherence culture, DMSO or compound 257, AMG650, or Compound A serially diluted in a 1:5 ratio from 400 nM and a PLK1 inhibitor with a specified concentration were added. The cell viability was assessed 168 h after dosing by measuring the intracellular ATP content. The inhibition percentages of viable cells by the compounds were calculated by comparing with the DMSO group, and the IC50 values were also calculated.

[8] = HCT116 cells, CYC140 (Plogosertib) 1.6 nM
[9] = HCT116 cells, CYC140 (Plogosertib) 8 nM
[10] = Homo sapiens, HCT-116, HCT116 cells, CYC140 (Plogosertib) 0 nM
[11] = Homo sapiens, HCT-116, HCT116 cells, Volasertib 0 nM

SMILES: COc1ccc(NC(=O)c2ccc(NS(=O)(=O)CCO)cc2N2CCC3(CC2)CC3)nc1N1CCC(F)(F)CC1 [Compound 257]
- Maximum inhibition rate (HT29 cells [1]; Volasertib 0 nM): 85.3%
- Minimum inhibition rate (HT29 cells [1]; Volasertib 0 nM): 3.2%
- Maximum inhibition rate (HT29 cells [1]; Volasertib 3.12 nM): 94.6%
- Minimum inhibition rate (HT29 cells [1]; Volasertib 3.12 nM): 1.8%
- Maximum inhibition rate (HT29 cells [1]; Volasertib 6.25 nM): 94.4%
- Minimum inhibition rate (HT29 cells [1]; Volasertib 6.25 nM): 0.5%
- IC50 (HT29 cells [1]; Volasertib 0 nM): 14 nM
- IC50 (HT29 cells [1]; Volasertib 3.12 nM): 7 nM
- IC50 (HT29 cells [1]; Volasertib 6.25 nM): 2.8 nM
- inhibitory effect on HT-29 cells, combined use with the PLK1 inhibitor compared with monotherapy (HT29 cells [1]; Volasertib, in words): stronger inhibitory effect
- synergistic effect on HCT116 cell viability, combined use with the PLK1 inhibitor (HCT116 cells [2]; CYC140 or TAK-960, in words): no significant synergistic effect
- IC50 (HCT116 cells [2]; [8]): > 400 nM
- IC50 (HCT116 cells [2]; [9]): > 400 nM
- IC50 (HCT116 cells [2]; HCT116 cells, TAK-960 0 nM): > 400 nM
- IC50 (HCT116 cells [2]; HCT116 cells, TAK-960 8 nM): > 400 nM
- IC50 (HCT116 cells [2]; HCT116 cells, TAK-960 40 nM): > 400 nM
- IC50 (HCT116 cells [2]; [10]): > 400 nM
- anti-proliferative activity against HCT116 cells, monotherapy (HCT116 cells [2]; in words): did not exhibit anti-proliferative activity
- inhibitory effect on HT-29 cells, combined use with the PLK1 inhibitor compared with monotherapy (HT29 cells [3]; CYC140 or TAK-960, in words): stronger inhibitory effect
- IC50 (HT29 cells [3]; CYC140 (Plogosertib) 0.0001 nM): 10.6 nM
- IC50 (HT29 cells [3]; CYC140 (Plogosertib) 1.6 nM): 8.3 nM
- IC50 (HT29 cells [3]; CYC140 (Plogosertib) 8 nM): 6.9 nM
- IC50 (HT29 cells [3]; CYC140 (Plogosertib) 40 nM): 0.9 nM
- IC50 (HT29 cells [3]; TAK-960 0.0001 nM): 10.1 nM
- IC50 (HT29 cells [3]; TAK-960 1.6 nM): 8.5 nM
- IC50 (HT29 cells [3]; TAK-960 8 nM): 1.7 nM
- IC50 (HT29 cells [3]; TAK-960 40 nM): 1.7 nM
- IC50 (HCT116 cells [4]; HCT116 cells, Volasertib 3.12 nM): > 10000 nM
- IC50 (HCT116 cells [4]; HCT116 cells, Volasertib 6.25 nM): > 10000 nM
- IC50 (HCT116 cells [4]; [11]): > 10000 nM
- synergistic effect on HCT116 cell viability, combined use with the PLK1 inhibitor (HCT116 cells [4]; Volasertib, in words): no significant synergistic effect
- IC50 (HCT116 cells [5]; HCT116 cells, Volasertib 10 nM): > 10000 nM
- IC50 (HCT116 cells [5]; HCT116 cells, Volasertib 50 nM): > 10000 nM
- IC50 (HCT116 cells [5]; [11]): > 10000 nM
- anti-proliferative activity against HCT116 cells, monotherapy (HCT116 cells [5]; in words): did not exhibit anti-proliferative activity
- synergistic effect on HCT116 cell viability, combined use with the PLK1 inhibitor (HCT116 cells [5]; in words): no significant synergistic effect
- inhibitory effect on SK-OV-3 cells, combined use with the PLK1 inhibitor compared with monotherapy (SK-OV-3 cells; Volasertib, in words): stronger inhibitory effect
- IC50 (SK-OV-3 cells; Volasertib 0.0001 nM): 15.4 nM
- IC50 (SK-OV-3 cells; Volasertib 3.13 nM): 12.8 nM
- IC50 (SK-OV-3 cells; Volasertib 6.25 nM): 12.2 nM
- IC50 (SK-OV-3 cells; Volasertib 12.5 nM): 8.7 nM
- IC50 (SK-OV-3 cells; Volasertib 25 nM): 5.9 nM
- IC50 (SK-OV-3 cells; Volasertib 50 nM): 2 nM
- inhibitory effect on HT-29 cells, combined use with the PLK1 inhibitor compared with monotherapy (HT29 cells [6]; Volasertib, in words): stronger inhibitory effect
- IC50 (HT29 cells [6]; Volasertib 0.0001 nM): 10.9 nM
- IC50 (HT29 cells [6]; Volasertib 3.13 nM): 7.9 nM
- IC50 (HT29 cells [6]; Volasertib 6.25 nM): 5.9 nM
- IC50 (HT29 cells [6]; Volasertib 12.5 nM): 2.5 nM
- IC50 (HT29 cells [6]; Volasertib 25 nM): 0.4 nM
- synergistic effect on HCT116 cell viability, combined use with the PLK1 inhibitor (HCT116 cells [7]; CYC140 or TAK-960, in words): no significant synergistic effect
- IC50 (HCT116 cells [7]; [8]): > 400 nM
- IC50 (HCT116 cells [7]; [9]): > 400 nM
- IC50 (HCT116 cells [7]; HCT116 cells, CYC140 (Plogosertib) 40 nM): > 400 nM
- IC50 (HCT116 cells [7]; HCT116 cells, TAK-960 0 nM): > 400 nM
- IC50 (HCT116 cells [7]; HCT116 cells, TAK-960 1.6 nM): > 400 nM
- IC50 (HCT116 cells [7]; HCT116 cells, TAK-960 8 nM): > 400 nM
- IC50 (HCT116 cells [7]; HCT116 cells, TAK-960 40 nM): > 400 nM
- IC50 (HCT116 cells [7]; [10]): > 400 nM
- anti-proliferative activity against HCT116 cells, monotherapy (HCT116 cells [7]; in words): did not exhibit anti-proliferative activity
